Experimental findings from patent publication US20230227466A1, “SUBSTITUTED THIENOPYRIMIDINES THAT INTERACT WITH THE RAS SUPERFAMILY FOR THE TREATMENT OF CANCERS, INFLAMMATORY DISEASES, RASOPATHIES, AND FIBROTIC DISEASE” (SHY Therapeutics, LLC, priority 2020, published 2023) are described below.

In data set [1] the test system is ERK1/2 phosphorylation in Panc-1 cells. The data set is described as follows: Western ERK1/2 cell-based phosphorylation assay. More on the design: species or system human. As to conditions: at 10 μM, values in brackets < > are activation %, not inhibition. The gist of the method:
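Panc-1 cells starved overnight in 0.5% FBS, then exposed 6 h at 37 °C to compound at 10 μM final (0.3% DMSO) or serial dilutions for IC50. Stimulation with 1.5 ng/ml EGF for 15 min; phospho-ERK1/2 (Thr202/Tyr204) read by western blot on equal protein loads.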

Data set [2] is described as follows: Kinetic solubility assay. The format is physicochemical. As to conditions: phosphate-buffered saline pH 7.4 with 2% DMSO, aqueous buffer, kinetic from dmso stock; pH 7.4 PBS + 2% DMSO, 25° C., two hours; effective range approximately 2-400 μM. The protocol: Equipment: Water purification system Millipore Milli-Q Gradient A10 (Millipore, France); Thermomixer R Block, 1.5 ml (Eppendorf, Germany; Cat #5355); Matrix Multichannel Electronic Pipette 2-125 μL, 5-250 μL, 15-1250 μL (Thermo Scientific, USA; Cat ##2011, 2012, 2004); SpectraMax Plus Microplate Reader (Molecular Devices, USA; Product #02196); Multi-Well Plate Vacuum Manifold (Pall Corporation, USA; Product #5014); and Vacuum pump (Millipore, USA; Model #XX5500000)
Analytical System: The measurements were performed using SpectraMax Plus reader in UV-Vis mode. Acquisition and analysis of the data were performed using SoftMax Pro v.5.4 (Molecular Devices) and Excel 2010 data analysis software.
Methods: Briefly, using a 20 mM stock solution of the compound in 100% DMSO dilutions were prepared to a theoretical concentration of 400 μM in duplicates in phosphate-buffered saline pH 7.4 (138 mM NaCl, 2.7 mM KCl, 10 mM K-phosphate) with 2% final DMSO. The experimental compound dilutions in PBS were further allowed to equilibrate at 25° C. on a thermostatic shaker for two hours and then filtered through HTS filter plates using a vacuum manifold. The filtrates of test compounds were diluted 2-fold with acetonitrile with 2% DMSO before measuring.
In parallel, compound dilutions in acetonitrile/PBS (1:1) were prepared to theoretical concentrations of 0 μM (blank), 10 μM, 25 μM, 50 μM, 100 μM, and 200 μM with 2% final DMSO to generate calibration curves. Ondansetron was used as reference compound to control proper assay performance. 200 μL of each sample was transferred to 96-well plate and measured in 200-550 nm range with 5 nm step.
The concentrations of compounds in PBS filtrate are calculated using a dedicated Microsoft Excel calculation script. Proper absorbance wavelengths for calculations are selected for each compound manually based on absorbance maximums (absolute absorbance unit values for the minimum and maximum concentration points within 0-3 OD range). Each of the final datasets is additionally visually evaluated by the operator and goodness of fit (R2) is calculated for each calibration curve. […] This method is not suitable for liquid (at 25° C.) substances (were not present among the tested compounds). Table 3A provides the kinetic solubility for some of the exemplified compounds.

The subject of data set [3] is MIA-PaCa-2 pancreatic cancer cell line (KRAS G12C). In words: Cell proliferation assay (CellTiter 96 Aqueous One). The format is cell-based. Conditions: Homo sapiens; for IC50: MIA PaCa-2, MIA PaCa-2; for inhibition at 10 µM: MIA PaCa-2, read-out: % inh cell proliferation (10 μM) in MIA PaCa-2. The gist of the method:
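Percent inhibition of proliferation is derived from MTS absorbance data. Cells seeded at 2000–5000 per well were grown overnight before treatment. Compounds, at 10 μM final or in dilution series, stayed on cells for 2–4 days in medium containing 10% FBS and 0.3% DMSO.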

For the compound `CO[C@@H]1CC[C@@H](Nc2nc(-c3nccn3C)nc3sc(-c4ccn(C(C)C)n4)c(C)c23)C1` (racemic) [Compound 33, rac-6-(1-Isopropyl-1H-pyrazol-3-yl)-N-((1R,3R)-3-methoxycyclopentyl)-5-methyl-2-(1-methyl-1H-imidazol-2-yl)thieno[2,3-d]pyrimidin-4-amine], the “% inh of ERK1/2 phosphorylation in PANC-1” value (“% inh” below) in data set [1] was “D (76-100% inhibition)”. Moreover, in data set [2], the kinetic solubility (in general, solubility judged after dilution from a stock solution rather than from solid) at 2 h was 49 µM. For the same compound, in data set [3], the IC50 (commonly the point on the concentration scale where inhibition reaches its midpoint) was 1 to 4.99 µM and the inhibition at 10 µM fell in the range of 76 to 100%.
In the case of `COC1CCN(c2nc(-c3nccn3C)nc3sc(-c4ccn(C(C)C)n4)c(C)c23)C1` (racemic) [Compound 34, rac-6-(1-Isopropyl-1H-pyrazol-3-yl)-4-(3-methoxypyrrolidin-1-yl)-5-methyl-2-(1-methyl-1H-imidazol-2-yl)thieno[2,3-d]pyrimidine], the “% inh” value in data set [1] was “D (76-100% inhibition)”. Further, the kinetic solubility at 2 h in data set [2] was more than 400 µM. For the same compound, in data set [3], the half-maximal inhibitory concentration (IC50) lay within 1 to 4.99 µM and the inhibition at 10 µM lay within 76 to 100%.
The like results for `COC1CCCN(c2nc(-c3nccn3C)nc3sc(-c4ccn(C(C)C)n4)c(C)c23)C1` (racemic) [Compound 40, rac-6-(1-Isopropyl-1H-pyrazol-3-yl)-4-(3-methoxypiperidin-1-yl)-5-methyl-2-(1-methyl-1H-imidazol-2-yl)thieno[2,3-d]pyrimidine] were, in that order, “D (76-100% inhibition)”, 82 µM, less than 1 µM and 76 to 100%.
In the case of `Cc1c(-c2ccn(C(C)C)n2)sc2nc(-c3nccn3C)nc(NCc3n[nH]c(=O)n3C)c12` [Compound 60, 5-(((6-(1-Isopropyl-1H-pyrazol-3-yl)-5-methyl-2-(1-methyl-1H-imidazol-2-yl)thieno[2,3-d]pyrimidin-4-yl)amino)methyl)-4-methyl-2,4-dihydro-3H-1,2,4-triazol-3-one], the “% inh” value in data set [1] is reported as 0 (0% inhibition). In data set [3], the half-maximal inhibitory concentration (IC50) is more than 10 µM and the inhibition at 10 µM fell in the range of 1 to 25%.
For `COc1cccc(Nc2nc(-c3nccn3C)nc3sc(-c4ccn(C(C)C)n4)c(C)c23)c1` [Compound 64, 6-(1-Isopropyl-1H-pyrazol-3-yl)-N-(3-methoxyphenyl)-5-methyl-2-(1-methyl-1H-imidazol-2-yl)thieno[2,3-d]pyrimidin-4-amine], in that order: “D (76-100% inhibition)”, 5 to 10 µM and 76 to 100%.
The like results for `COc1cccc(Nc2nc(-c3nccn3C)nc3sc(-c4ccn(C(C)C)n4)c(C)c23)n1.Cl` [Compound 65, 6-(1-Isopropyl-1H-pyrazol-3-yl)-N-(6-methoxypyridin-2-yl)-5-methyl-2-(1-methyl-1H-imidazol-2-yl)thieno[2,3-d]pyrimidin-4-amine hydrochloride salt] were, in that order, “D (76-100% inhibition)”, 5 to 10 µM and 76 to 100%.
For `COc1cc(Nc2nc(-c3nccn3C)nc3sc(-c4ccn(C(C)C)n4)c(C)c23)ccn1` [Compound 67, 6-(1-Isopropyl-1H-pyrazol-3-yl)-N-(2-methoxypyridin-4-yl)-5-methyl-2-(1-methyl-1H-imidazol-2-yl)thieno[2,3-d]pyrimidin-4-amine], the “% inh” value in data set [1] was 0 (0% inhibition). Also, in data set [3], the concentration for half-maximal inhibition (IC50) lay within 5 to 10 µM and the inhibition at 10 µM was in the range of 76 to 100%.
The like results for `COc1ccnc(Nc2nc(-c3nccn3C)nc3sc(-c4ccn(C(C)C)n4)c(C)c23)n1` [Compound 68, 6-(1-Isopropyl-1H-pyrazol-3-yl)-N-(4-methoxypyrimidin-2-yl)-5-methyl-2-(1-methyl-1H-imidazol-2-yl)thieno[2,3-d]pyrimidin-4-amine] were, in that order, “C (51-75% inhibition)”, 1 to 4.99 µM and 76 to 100%.
`Cc1c(-c2ccn(C(C)C)n2)sc2nc(-c3ccccn3)nc(N3CCC(COC(C)C)C3)c12` (stereo not drawn) [Compound 72, 4-(3-(Isopropoxymethyl)pyrrolidin-1-yl)-6-(1-isopropyl-1H-pyrazol-3-yl)-5-methyl-2-(pyridin-2-yl)thieno[2,3-d]pyrimidine]: the “% inh” value in data set [1] is “D (76-100% inhibition)”. Moreover, in data set [3], the IC50 lay in the range of 5 to 10 µM and the inhibition at 10 µM lay within 51 to 75%.
Turning to `COCCn1cnc(-c2nc(O)c3scc(-c4ccccn4)c3n2)c1` [Compound 78, 2-(1-(2-Methoxyethyl)-1H-imidazol-4-yl)-7-(pyridin-2-yl)thieno[3,2-d]pyrimidin-4-ol], the “% inh” value in data set [1] is recorded as 0 (0% inhibition). In addition, in data set [3], the half-maximal inhibitory concentration (IC50) was in the range of 5 to 10 µM and the inhibition at 10 µM was in the range of 51 to 75%.
The like results for `COCCCn1ccnc1-c1nc(O)c2scc(-c3ccccn3)c2n1` [Compound 79, 2-(1-(3-Methoxypropyl)-1H-imidazol-2-yl)-7-(pyridin-2-yl)thieno[3,2-d]pyrimidin-4-ol] were, in that order, 0 (0% inhibition), 1 to 4.99 µM and 76 to 100%.
On to `CCOCCn1ccnc1-c1nc(O)c2scc(-c3ccccn3)c2n1` [Compound 80, 2-(1-(2-Ethoxyethyl)-1H-imidazol-2-yl)-7-(pyridin-2-yl)thieno[3,2-d]pyrimidin-4-ol], for which the “% inh” value in data set [1] is reported as “A (1-25% inhibition)”. Besides, in data set [3], the IC50 fell in the range of 1 to 4.99 µM and the inhibition at 10 µM was 76 to 100%.
Consider `Oc1nc(-c2nccn2CCOCC(F)(F)F)nc2c(-c3ccccn3)csc12` [Compound 81, 7-(Pyridin-2-yl)-2-(1-(2-(2,2,2-trifluoroethoxy)ethyl)-1H-imidazol-2-yl)thieno[3,2-d]pyrimidin-4-ol], for which, in data set [1], the “% inh” value is reported as “B (26-50% inhibition)”. Further, in data set [3], the concentration for half-maximal inhibition (IC50) was in the range of 1 to 4.99 µM and the inhibition at 10 µM was 76 to 100%.
The like results for `CC(C)OCCn1ccnc1-c1nc(O)c2scc(-c3ccccn3)c2n1` [Compound 82, 2-(1-(2-Isopropoxyethyl)-1H-imidazol-2-yl)-7-(pyridin-2-yl)thieno[3,2-d]pyrimidin-4-ol] were, in that order, “A (1-25% inhibition)”, 1 to 4.99 µM and 76 to 100%.
For `Oc1nc(-c2nccn2CCOCc2ccccc2)nc2c(-c3ccccn3)csc12` [Compound 83, 2-(1-(2-(Benzyloxy)ethyl)-1H-imidazol-2-yl)-7-(pyridin-2-yl)thieno[3,2-d]pyrimidin-4-ol], in that order: “B (26-50% inhibition)”, 5 to 10 µM and 76 to 100%.
The like results for `COc1cccn2c(-c3nc(O)c4scc(-c5ccccn5)c4n3)ncc12` [Compound 84, 2-(8-Methoxyimidazo[1,5-a]pyridin-3-yl)-7-(pyridin-2-yl)thieno[3,2-d]pyrimidin-4-ol] were, in that order, 0 (0% inhibition), 5 to 10 µM and 51 to 75%.
With `CO[C@H]1C[C@@H](Nc2nc(-c3nccn3C)nc3sc(-c4ccn(C(C)C)n4)c(C)c23)C1` [Compound 96, 6-(1-isopropyl-1H-pyrazol-3-yl)-N-((1s,3s)-3-methoxycyclobutyl)-5-methyl-2-(1-methyl-1H-imidazol-2-yl)thieno[2,3-d]pyrimidin-4-amine], in data set [1], the “% inh” value is listed as “B (26-50% inhibition)”. In data set [3], the IC50 was more than 10 µM and the inhibition at 10 µM lay in the range of 1 to 25%.
